One data set has as its target T1, lipoxidase (EC1.13.1.13) (Glycine max, UniProt P08170).
T1 sequence (P08170 1-839): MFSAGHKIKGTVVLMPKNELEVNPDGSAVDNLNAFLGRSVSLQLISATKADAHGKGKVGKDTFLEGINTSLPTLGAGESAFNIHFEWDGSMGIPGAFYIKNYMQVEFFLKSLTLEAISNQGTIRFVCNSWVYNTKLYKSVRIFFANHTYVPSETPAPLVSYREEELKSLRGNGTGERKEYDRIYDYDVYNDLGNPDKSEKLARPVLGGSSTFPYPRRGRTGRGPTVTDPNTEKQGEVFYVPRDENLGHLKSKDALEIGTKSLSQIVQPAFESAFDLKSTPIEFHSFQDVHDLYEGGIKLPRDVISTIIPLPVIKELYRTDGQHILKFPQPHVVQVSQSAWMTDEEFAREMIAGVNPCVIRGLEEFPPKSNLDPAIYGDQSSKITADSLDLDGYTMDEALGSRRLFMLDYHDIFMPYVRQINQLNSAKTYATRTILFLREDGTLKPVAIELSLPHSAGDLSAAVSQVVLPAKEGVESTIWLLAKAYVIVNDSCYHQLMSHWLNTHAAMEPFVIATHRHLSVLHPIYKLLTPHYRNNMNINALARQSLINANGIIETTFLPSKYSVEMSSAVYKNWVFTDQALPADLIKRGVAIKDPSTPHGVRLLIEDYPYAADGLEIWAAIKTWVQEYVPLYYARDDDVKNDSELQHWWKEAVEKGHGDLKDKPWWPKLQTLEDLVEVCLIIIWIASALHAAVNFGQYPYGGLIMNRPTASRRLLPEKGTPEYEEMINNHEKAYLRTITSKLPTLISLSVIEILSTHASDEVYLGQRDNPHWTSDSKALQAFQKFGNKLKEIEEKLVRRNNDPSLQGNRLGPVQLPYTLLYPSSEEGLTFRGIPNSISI
The data set can be described thus: Lipoxidase Inhibition Test (inhibition of the oxidation of linoleic acid by lipoxidase). Format: biochemical. Particulars: Lipoxidase Inhibiting Capacity; 0.5% by weight solution in ethanol of the material in test substrate solution; borate buffer pH 9.0; 234 nm. As for the experimental part:
In this test the capacity of a material to inhibit the oxidation of linoleic acid by lipoxidase (EC1.13.1.13) to form a hydroperoxide is measured.
Aqueous 0.2M sodium borate solution (pH 9.0) is used as buffer solution.
A control substrate solution is prepared by dissolving linoleic acid (2.0 ml) in absolute ethanol (60 ml), diluting with distilled water to 100 ml and then adding borate buffer (100 ml) and absolute ethanol (300 ml).
A test substrate solution is prepared in the same way as the control substrate solution except that for the absolute ethanol (300 ml) is substituted the same volume of a 0.5% by weight solution in ethanol of the material to be tested.
A solution of the enzyme lipoxidase in the borate buffer and having an activity within the range of from 15,000 to 40,000 units per ml is prepared.
The activity of the lipoxidase in catalysing the oxidation of linoleic acid is first assayed spectrophotometrically using the control. An automatic continuously recording spectrophotometer is used and the increase in extinction at 234 nm (the peak of hydroperoxide) is measured to follow the course of oxidation, the enzyme concentration used being such that it gives an increase in optical density (ΔOD) at 234 nm within the range of from 0.6 to 1.0 units per minute. The following ingredients are placed in two 3 ml cuvettes:
The lipoxidase solution is added to the control cuvette last and the reaction immediately followed spectrophotometrically for about 3 minutes, with recording of the increase in optical density at 234 nm as a curve on a graph.
The capacity of a material to inhibit the oxidation is then measured using a test sample containing enzyme, substrate and a deodorant material. The following ingredients are placed in two 3 ml cuvettes.
The lipoxidase solution is added to the test sample cuvette last and the course of the reaction immediately followed as before.
The lipoxidase-inhibiting capacity of the material is then calculated from the formula 100 (S1-S2)/S1, where S1 is the slope of the curve obtained with the control and S2 is the slope of the curve obtained with the test sample, and thus expressed as % inhibitor. A material that gives at least 50% inhibition in the test is hereafter referred to as having a lipoxidase-inhibiting capacity of at least 50%.

Data set [1] can be described thus: Morpholine Test (depression of the partial vapour pressure of morpholine, Raoult variance ratio). The format is physicochemical. Particulars: morpholine (0.25 g) and material (1 g), 37°C, headspace GC. As for the experimental part:
In this test the capacity of a material to depress the partial vapour pressure of morpholine more than that required by Raoult's Law is measured. Substances that undergo chemical reaction with morpholine, for example aldehydes, are to be regarded as excluded from the test.
Into a sample bottle of capacity 20 ml is introduced morpholine ([…]), the bottle fitted with a serum cap and then maintained at 37°C for 30 minutes for equilibrium to be reached. The gas in the headspace of the bottle is analysed by piercing the serum cap with a capillary needle through which nitrogen at 37°C is passed to increase the pressure in the bottle by a standard amount and then allowing the excess pressure to inject a sample from the headspace into gas chromatograph apparatus, which analyses it and provides a chromatographic trace curve with a peak due to morpholine, the area under which is proportional to the amount of morpholine in the sample.
The procedure is repeated under exactly the same conditions using instead of morpholine alone, morpholine (0.25 g) and the material to be tested (1 g); and also using the material (1 g) without the morpholine to check whether it gives an interference with the morpholine peak (which is unusual).
The procedure is repeated until reproducible results are obtained. The areas under the morpholine peaks are measured and any necessary correction due to interference by the material is made.
A suitable apparatus for carrying out the above procedure is a Perkin-Elmer Automatic GC Multifract F40 for Head Space Analysis. Further details of this method are described by Kolb in "CZ-Chemie-Technik", Vol 1, No 2, 87-91 (1972) and by Jentzsch et al in "Z. Anal. Chem." 236, 96-118 (1968).
The measured areas representing the morpholine concentration are proportional to the partial vapour pressure of the morpholine in the bottle headspace. If A is the area under the morpholine peak when only morpholine is tested and A' is the area due to morpholine when a material is present, the relative lowering of partial vapour pressure of morpholine by the material is given by 1-A'/A.
According to Raoult's Law, if at a given temperature the partial vapour pressure or morpholine in equilibrium with air above liquid morpholine is p, the partial vapour pressure p' exerted by morpholine in a homogeneous liquid mixture of morpholine and material at the same temperature is pM/(M+PC), where M and PC are the molar concentrations of morpholine and material.
The extend to which the behaviour of the mixture departs from Raoult's Law is given by the ratio (1-A'/A)/(87/(87+m/4)) [formula]
The above ratio, which will be referred to as the Raoult variance ratio, is calculated from the test results. Where a material is a mixture of compounds, a calculated or experimentally determined average molecular weight is used for m. A material that depresses the partial vapour pressure of morpholine by at least 10% more than that required by Raoult's Law in the Morpholine Test is one in which the Raoult variance ratio is at least 1.1.

For the compound `O=c1ccc2ccccc2o1` [Coumarin], the LIC value at lipoxidase (EC1.13.1.13) is recorded as 58%. In addition, in data set [1], the RVR value was 1.22.
`CC(C=O)Cc1ccc(C(C)(C)C)cc1` (stereo not drawn) [p-t-Butyl-α-methyl hydrocinnamic aldehyde]: the LIC value on lipoxidase (EC1.13.1.13) was determined as 74%.
`CCOc1cc(C=O)ccc1O` [Ethyl vanillin] had an LIC value at lipoxidase (EC1.13.1.13) of 100%. The RVR value in data set [1] came out at 1.43.
For `OCCc1ccccc1` [Phenylethyl alcohol] the same measures were 22% and 1.24.
For `CC(=O)OC1CCC(C(C)(C)C)CC1` (centres unmarked) [p-t-Butyl cyclohexyl acetate] the same measures were 54% and 0.98.
For `O=C(OCc1ccccc1)c1ccccc1O` [Benzyl salicylate] the same measures were 0% and 1.58.
On to `COC(=O)c1c(C)cc(O)c(C)c1O` [LRG 201], for which, on lipoxidase (EC1.13.1.13), the LIC value came out at 100%. The RVR value in data set [1] was 1.21.
Regarding `COc1ccc2ccccc2c1` [β-Naphthyl methyl ether], at lipoxidase (EC1.13.1.13), the LIC value is recorded as 100%.

Values taken from patent EP0684037B1, “Deodorant compositions” (UNILEVER PLC, priority 1994, dated 1995).
